Measured values: ChEMBL document CHEMBL1127333, “Antiviral enantiomeric preference for 5'-noraristeromycin” (J Med Chem, 1994)
Converted amounts (≈) assume the structure as drawn.

How the values were obtained:
Homo sapiens [1] = species on record: Homo sapiens; test: Inhibitory concentration on human T-lymphocyte CEM/0 cells; type: functional, cell-based; conditions: CCRF-CEM
HEL [2] = test: Activity against VZV (OKA) induced cytopathicity in HEL cells; type: functional; conditions: Homo sapiens
Vero [3] = test: Activity against sindbis virus induced cytopathicity in Vero cells; type: functional; conditions: Chlorocebus sabaeus
E6SM [4] = test: Activity against VSV virus induced cytopathicity in E6SM cells; type: functional; conditions: Homo sapiens
MDCK [5] = test: cells; conditions: Canis lupus familiaris
HEL [6] = test: Activity against VZV (YS) induced cytopathicity in HEL cells; type: functional; conditions: Homo sapiens
E6SM [7] = test: Activity against HSV-2(G) virus induced cytopathicity in E6SM cells; type: functional; conditions: Homo sapiens
HeLa [8] = test: Activity against parainfluenza-3 virus induced cytopathicity in HeLa cells; type: functional; conditions: Homo sapiens
HEL [9] = test: Activity against CMV (AD-169) induced cytopathicity in HEL cells; type: functional; conditions: Homo sapiens
L1210 = test: Inhibitory concentration on murine leukemia L1210/0 cells; type: functional, cell-based; conditions: Mus musculus
HeLa [10] = test: cells; conditions: Homo sapiens
E6SM [11] = test: Activity against VV virus induced cytopathicity in E6SM cells; type: functional; conditions: Homo sapiens
Vero [12] = test: cells; conditions: Chlorocebus sabaeus
CCRF-CEM [13] = test: Activity against HIV-1 induced cytopathicity in CEM cells; type: functional; conditions: Homo sapiens
Vero [14] = test: Activity against semliki forest virus induced cytopathicity in Vero cells; type: functional; conditions: Chlorocebus sabaeus
Vero [15] = test: cells; conditions: Chlorocebus sabaeus; remark: listed apart in the source
[16] = test system: Respiratory syncytial virus; test: Activity against RSV (strain Long) virus induced cytopathicity in HeLa cells; type: functional; conditions: human respiratory syncytial virus
CCRF-CEM [17] = test: Activity against HIV-2 induced cytopathicity in CEM cells; type: functional; conditions: Homo sapiens
Homo sapiens [18] = species on record: Homo sapiens; test: Inhibitory concentration on human T-lymphocyte Molt4 (clone 8) cells; type: functional, cell-based; conditions: MOLT-4
HEL [19] = test: Activity against CMV (Davis) induced cytopathicity in HEL cells; type: functional; conditions: Homo sapiens
HeLa [20] = test: Activity against coxsackie B4 virus induced cytopathicity in HeLa cells; type: functional; conditions: Homo sapiens
HeLa [21] = test: Activity against VSV virus induced cytopathicity in HeLa cells; type: functional; conditions: Homo sapiens
Vero [22] = test: Activity against reovirus-1 induced cytopathicity in Vero cells; type: functional; conditions: Chlorocebus sabaeus
E6SM [23] = test: Activity against HSV-1(KOS) virus induced cytopathicity in E6SM cells; type: functional; conditions: Homo sapiens
MDCK [24] = test: cells; conditions: Canis lupus familiaris; remark: listed apart in the source
Adenosylhomocysteinase = Adenosylhomocysteinase (Mus musculus, UniProt P50247); test: Binding affinity against L929 cells AdoHcy hydrolase activity; type: cell-based
Chain of Adenosylhomocysteinase (P50247 whole entry): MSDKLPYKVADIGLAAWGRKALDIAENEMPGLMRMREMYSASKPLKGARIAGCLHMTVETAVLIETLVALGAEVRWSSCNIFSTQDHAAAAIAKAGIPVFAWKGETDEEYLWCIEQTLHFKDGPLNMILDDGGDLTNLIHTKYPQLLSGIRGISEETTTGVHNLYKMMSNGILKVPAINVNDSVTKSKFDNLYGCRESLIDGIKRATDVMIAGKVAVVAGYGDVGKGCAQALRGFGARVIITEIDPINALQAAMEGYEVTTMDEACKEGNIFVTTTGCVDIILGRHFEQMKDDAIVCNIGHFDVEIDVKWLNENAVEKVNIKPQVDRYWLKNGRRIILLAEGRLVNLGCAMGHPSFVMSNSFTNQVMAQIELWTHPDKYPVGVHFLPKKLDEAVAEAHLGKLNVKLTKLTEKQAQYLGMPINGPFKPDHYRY

Homo sapiens [25] = species on record: Homo sapiens; test: Inhibitory concentration on human T-lymphocyte Molt(clone 8) cells; type: functional, cell-based
MDCK [26] = test: Activity against influenza B virus induced cytopathicity in MDCK cells; type: functional; conditions: Canis lupus familiaris
MDCK [27] = test: Activity against influenza A virus induced cytopathicity in MDCK cells; type: functional; conditions: Canis lupus familiaris

| Structure (SMILES) | IC50 (Homo sapiens [1]) [nM] | MIC50 (HEL [2]) [µg/mL] | MIC50 (Vero [3]) [µg/mL] | MIC50 (E6SM [4]) [µg/mL] | MIC50 (HEL [6]) [µg/mL] | MIC50 (E6SM [7]) [µg/mL] | MIC50 (HeLa [8]) [µg/mL] | MIC50 (HEL [9]) [µg/mL] | IC50 (L1210) [nM] | MIC50 (HeLa [10]) [µg/mL] | MIC50 (E6SM [11]) [µg/mL] | MIC50 (Vero [12]) [µg/mL] | MIC50 (Vero [14]) [µg/mL] | MIC50 (Vero [15]) [µg/mL] | MIC50 [16] [µg/mL] | MIC50 (HEL [19]) [µg/mL] | MIC50 (HeLa [20]) [µg/mL] | MIC50 (HeLa [21]) [µg/mL] | MIC50 (Vero [22]) [µg/mL] | MIC50 (E6SM [23]) [µg/mL] | other results |
| --- | --- | --- | --- | --- | --- | --- | --- | --- | --- | --- | --- | --- | --- | --- | --- | --- | --- | --- | --- | --- | --- |
| Nc1ncnc2c1ncn2[C@H]1C[C@@H](O)[C@H](O)[C@@H]1O | 3990 | > 50 | > 400 | 2 (≈ 7.96 µM) | > 50 | > 400 | 0.2 (≈ 0.796 µM) | 5 (≈ 19.9 µM) | 5700 | > 400 | 0.7 (≈ 2.79 µM) | 30 (≈ 119 µM) | > 400 | 50 (≈ 199 µM) | > 200 | 3 (≈ 11.9 µM) | > 400 | 2 (≈ 7.96 µM) | 7 (≈ 27.9 µM) | > 400 | MIC50 (MDCK [5]): > 200 µg/mL; MIC50 (CCRF-CEM [13]): > 4 µg/mL; MIC50 (CCRF-CEM [17]): > 4 µg/mL; IC50 (Homo sapiens [18]): 4650 nM; MIC50 (MDCK [24]): > 200 µg/mL |
| Nc1ncnc2c1ncn2C1CC(O)C(O)C1O (racemic) | 680 |  |  |  |  |  |  |  | 630 |  |  |  |  |  |  |  |  |  |  |  | Ki (Adenosylhomocysteinase): 11.1 nM; IC50 (Homo sapiens [25]): 580 nM |
| Nc1ncnc2c1ncn2[C@@H]1C=C(CO)[C@@H](O)[C@H]1O [NEOPLANOCIN A] |  | 6 (≈ 22.8 µM) | > 10 | 2 (≈ 7.6 µM) | 3.5 (≈ 13.3 µM) | > 100 | 0.2 (≈ 0.76 µM) | 0.2 (≈ 0.76 µM) |  | > 10 | 0.2 (≈ 0.76 µM) | 0.4 (≈ 1.52 µM) | > 10 | 0.4 (≈ 1.52 µM) | > 1.2 | 0.2 (≈ 0.76 µM) | > 10 | 2 (≈ 7.6 µM) | 0.7 (≈ 2.66 µM) | 70 (≈ 266 µM) | MIC50 (MDCK [5]): 1.2 µg/mL (≈ 4.56 µM); Ki (Adenosylhomocysteinase): 3 nM; MIC50 (MDCK [24]): > 2.8 µg/mL |
| Nc1ncnc2c1ncn2[C@@H]1C[C@H](O)[C@@H](O)[C@H]1O [NORARISTEROMYCIN] | 420 | > 50 | > 400 | 0.1 (≈ 0.398 µM) | > 50 | > 400 | 0.07 (≈ 0.279 µM) | 0.01 (≈ 0.0398 µM) | 500 | > 400 | 0.04 (≈ 0.159 µM) | 6 (≈ 23.9 µM) | > 400 | 8 (≈ 31.8 µM) | > 200 | 0.03 (≈ 0.119 µM) | > 400 | 0.2 (≈ 0.796 µM) | 0.7 (≈ 2.79 µM) | > 400 | MIC50 (MDCK [26]): > 100 µg/mL; MIC50 (MDCK [27]): > 100 µg/mL; MIC50 (CCRF-CEM [13]): > 0.16 µg/mL; MIC50 (CCRF-CEM [17]): > 0.16 µg/mL; IC50 (Homo sapiens [18]): 390 nM |
